Several values for one entry are separate records, joined by “and”; a condition that tells them apart may be missing. Equal values may be shown once. Entries after “also recorded” stand apart in the source; their conditions may differ. Oligonucleotides are written 5' to 3', each unit as a sugar letter and its base; * is a phosphorothioate linkage, no mark a phosphodiester; rarer units and linkages stand in square brackets, end groups in braces. Plain capitals give the bases only. e = 2'-O-(2-methoxyethyl) (MOE); [5mC] = 5-methylcytosine; d = 2'-deoxy (DNA)
Assays:
[1] = test system: 27 nucleotide fragment of bacterial 16S ribosomal RNA incorporating the A-site; test: ESI-FT-ICR mass spectrometry detection of non-covalent ligand complexes with 16S RNA fragment; format: binding; conditions: for ion abundance of binary complex relative to unbound 16S RNA: 200 μM ligand, 5 μM target 16S RNA fragment; for ion abundance of binary complex relative to unbound 16S RNA / relative binding affinity from comparison of ion abundance of binary complexes: mass spectrometry; for relative binding affinity from comparison of ion abundance of binary complexes: 16S RNA fragment; for mode of binding interaction of two ligands for the target RNA: ligand pair mixed with 5 μM 16S RNA fragment, presence and abundance of ternary complex
Text: Ligands bind competitively for a target when the binding of one ligand prevents the binding of the other ligand is the result of the ligands binding to the target at the same location. In this situation, the mixture contains an equilibrium of two binary complexes, one of which being one ligand bound to the target and the other being the other ligand bound to the target. The ligand having the greater affinity for the target will predominate and thus have higher signal intensity for its binary complex with the target compared to the other ligand. Competitive binding interaction between two ligands is determined according to methods of the invention by analyzing the mixture by mass-spectrometry to detect the presence or lack of signal corresponding to a ternary complex where both ligands are bound to the target at the same time. The lack of signal for a ternary complex indicates a competitive binding interaction between the two ligands while the presence of the signal indicates a non-competitive interaction.
Ligands bind concurrently when the binding of one ligand to the target is unaffected by the binding of the other and is a consequence of the ligands binding to the target at distinct sites. […] The ligand having the greater affinity for the target will have higher signal intensity for its binary complex with the target compared to the other ligand. […] Particularly, the absolute ion abundance of the ternary complex (TL1L2) is compared to the relative ion abundance of the binary complexes (TL1 and TL2) which contribute to the formation of the ternary complex with respect to the unbound target (TL1×TL2/T). Since there are two binary complexes contributing the formation of the ternary complex, the comparison is with the sum of the two contributing binary complexes i.e. TL1×TL2/T+TL2×TL1/T. If the absolute ion abundance of the ternary complex is equal to the sum of the relative ion abundance of the contributing binary complexes, then the two ligands concurrently bind to the target substrate. […] The relative ion abundance of the ternary complex (16S+2−DOS+DT) with respect to the unbound 16S target RNA (16S) is equal, within limits of error, to the sum of the relative ion abundance of the contributing binary complex ((16S+DT)×(16S+2−DOS)) with respect to the unbound target (16S) and the contributing binary complex ((16S+2−DOS)+(16S+DT)) with respect to the unbound target (16S).
All MS experiments were performed by using an Apex II 70e ESI-FT-ICR MS (Bruker Daltonics, Billerica, Mass.) with an actively shielded 7 tesla superconducting magnet. RNA solutions were prepared in 50 mM NH4OAc (pH 7), mixed with 10% isopropanol to aid desolvation, and infused at a rate of 1.5 μL/min by using a syringe pump. Ions were formed in a modified electrospray source (Analytica, Branford, Conn.) by using an off-axis grounded electrospray probe positioned about 1.5 cm from the metallized terminus of the glass desolvation capillary biased at 5,000 V. A countercurrent flow of dry […] gas heated to 150° C. was used to assist in the desolvation process. Ions were accumulated in an external ion reservoir comprised of a radio frequency-only hexapole, a skimmer cone, and an auxiliary electrode for 1,000 ms before transfer into the trapped ion cell for mass analysis. Each spectrum was the result of the co-addition of 64 transients comprised of 524,288 data points acquired over a […] bandwidth, resulting in a 1.2-sec detection interval. All aspects of pulse sequence control, data acquisition, and postacquisition processing were performed by using a Bruker Daltonics data station running XMASS Version 4.0 on a Silicon Graphics (Mountain View, Calif.) R5000 computer.
RNA binding ligands are selected from a set of compounds using mass spectrometry. The RNA used for the target molecule is an RNA whose electrospray ionization properties have been optimized in conjunction with optimization of the electrospray ionization and desolvation conditions. […]

human CD40 mRNA = test: Inhibition of CD40 mRNA levels by oligonucleotides (real-time RT-PCR); format: cell-based; set-up: concentration or dose not given beside the values; conditions: for % INHIB. (Inhibition of CD40 mRNA Levels by Phosphorothioate Oligodeoxynucleotides): oligodeoxynucleotides with phosphorothioate backbones throughout, averages from three experiments; for % Inhibition (Inhibition of CD40 mRNA Levels by Chimeric Phosphorothioate Oligonucleotides): 2'-MOE gapmers, 18 nucleotides, phosphorothioate throughout, averaged from three experiments
Summary of the method: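 Cells at ~80% confluency were transfected with oligonucleotide at 150 nM final using Lipofectin 3.75 μg/ml for 4 h and harvested 16 h after treatment. Poly(A)+ mRNA was taken for TaqMan real-time RT-PCR of CD40, and percent inhibition was derived from a standard curve of untreated control mRNA.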

## 1-{2-[(3R)-4-((2S)-2-amino-3-hydroxypropanoyl)-3-methylpiperazinyl]-2-oxoethyl}-5-methyl-1,3-dihydropyrimidine-2,4-dione [IBIS-271583]
[1]
  ion abundance of binary complex relative to unbound 16S RNA: 27.8%
  relative binding affinity from comparison of ion abundance of binary complexes: greater affinity for 16S than either parent compound
[1]; listed as IBIS-271483
  ion abundance of binary complex relative to unbound 16S RNA: 52.4%
  relative binding affinity from comparison of ion abundance of binary complexes: greater affinity for the target 16S RNA than either of the parent compounds

## Nc1n[nH]c(N)n1 [DT, 3,5-diamino-1,2,4-triazole, reference compound]
[1]
  mode of binding interaction of two ligands for the target RNA: concurrent binding interaction
[1]; listed as 3,5-DT
  mode of binding interaction of two ligands for the target RNA: cooperative binding
[1]; listed as 3,5-diamino-1,2,4-triazole
  mode of binding interaction of two ligands for the target RNA: concurrent binding

## NN1CN(SCc2ccccc2)C=N1 [2-amino-4-benzylthio-1,2,4-triazole]
[1]; RNA target 5 micromolar, ligand 100 micromolar, ammonium as standard ligand
  ions of ligand adduct with RNA target observed: also seen

## N[C@@H](CO)C(=O)N1CCNCC1 [IBIS-326611, (2S)-2-amino-3-hydroxy-1-piperazinylpropan-1-one]
[1]
  ion abundance of binary complex relative to unbound 16S RNA: 14.7% and 27.8%

## N[C@@H]1C[C@H](N)[C@@H](O)C(O)[C@H]1O (some centres unmarked) [2-DOS, 2-deoxystreptamine, reference compound]
[1]
  relative binding affinity from comparison of ion abundance of binary complexes: greater binding affinity for the target RNA than DT
  mode of binding interaction of two ligands for the target RNA: concurrent binding interaction; also recorded: cooperative binding

## N[C@H]1C(O)O[C@H](CO)[C@@H](O)[C@@H]1O (some centres unmarked) [glucosamine, reference compound]
[1]
  mode of binding interaction of two ligands for the target RNA: competitive binders; also recorded: displaced from the RNA by addition of a benzimidazole compound

## Nc1cccc2nc(C3CCNCC3)[nH]c12 [Ibis-326732, 4-amino-2-piperidin-4-ylbenzimidazole]
[1]
  relative binding affinity from comparison of ion abundance of binary complexes: greater affinity than glucosamine
  mode of binding interaction of two ligands for the target RNA: competitive displacement of glucosamine; also recorded: competitive binders

## 18659 (DNA dG*dT*dG*dC*dC*dA*dG*dC*dC*dT*dT*dC*dT*dT*dC*dA*dC*dA; antisense) [compound 18659]
Human CD40 mRNA
  % INHIB. (Inhibition of CD40 mRNA Levels by Phosphorothioate Oligodeoxynucleotides): 5.67%

## 18688 (DNA dG*dA*dG*dG*dA*dT*dG*dG*dC*dA*dA*dA*dC*dA*dG*dG*dA*dT; antisense) [compound 18688]
Human CD40 mRNA
  % INHIB. (Inhibition of CD40 mRNA Levels by Phosphorothioate Oligodeoxynucleotides): 0.00%

## 19229 (antisense eT*e[5mC]*eA*e[5mC]*dT*dC*dA*dC*dC*dA*dG*dT*dT*dT*e[5mC]*eT*eG*eT) [compound 19229]
Human CD40 mRNA
  % Inhibition (Inhibition of CD40 mRNA Levels by Chimeric Phosphorothioate Oligonucleotides): 40.64%

## 18684 (DNA dC*dT*dG*dG*dG*dG*dA*dC*dC*dA*dC*dA*dG*dA*dC*dA*dA*dC; antisense) [compound 18684]
Human CD40 mRNA
  % INHIB. (Inhibition of CD40 mRNA Levels by Phosphorothioate Oligodeoxynucleotides): 0.00%

## 18685 (DNA dT*dC*dA*dG*dC*dC*dG*dA*dT*dC*dC*dT*dG*dG*dG*dG*dA*dC; antisense) [compound 18685]
Human CD40 mRNA
  % INHIB. (Inhibition of CD40 mRNA Levels by Phosphorothioate Oligodeoxynucleotides): 0.00%

## 18628 (DNA dG*dC*dA*dA*dG*dC*dA*dG*dC*dC*dC*dC*dA*dG*dA*dG*dG*dA; antisense) [compound 18628]
Human CD40 mRNA
  % INHIB. (Inhibition of CD40 mRNA Levels by Phosphorothioate Oligodeoxynucleotides): 0.00%

## 18653 (DNA dG*dG*dT*dG*dC*dC*dC*dT*dT*dC*dT*dG*dC*dT*dG*dG*dA*dC; antisense) [compound 18653]
Human CD40 mRNA
  % INHIB. (Inhibition of CD40 mRNA Levels by Phosphorothioate Oligodeoxynucleotides): 19.67%

## 18698 (DNA dG*dT*dA*dA*dA*dG*dT*dC*dT*dC*dC*dT*dG*dC*dA*dC*dT*dG; antisense) [compound 18698]
Human CD40 mRNA
  % INHIB. (Inhibition of CD40 mRNA Levels by Phosphorothioate Oligodeoxynucleotides): 0.00%

## 18691 (DNA dT*dA*dT*dT*dG*dG*dT*dT*dG*dG*dC*dT*dT*dC*dT*dT*dG*dG; antisense) [compound 18691]
Human CD40 mRNA
  % INHIB. (Inhibition of CD40 mRNA Levels by Phosphorothioate Oligodeoxynucleotides): 0.00%

## 18665 (DNA dA*dA*dT*dC*dT*dG*dC*dT*dT*dG*dA*dC*dC*dC*dC*dA*dA*dA; antisense) [compound 18665]
Human CD40 mRNA
  % INHIB. (Inhibition of CD40 mRNA Levels by Phosphorothioate Oligodeoxynucleotides): 5.59%

## 19270 (eG*eT*e[5mC]*eT*dT*dG*dT*dT*dT*dG*dT*dG*dC*dC*eT*eG*e[5mC]*e[5mC]; antisense) [compound 19270]
Human CD40 mRNA
  % Inhibition (Inhibition of CD40 mRNA Levels by Chimeric Phosphorothioate Oligonucleotides): 68.95%

## 19215 (DNA eG*e[5mC]*eA*eG*dA*dG*dG*dC*dA*dG*dA*dC*dG*dA*eA*e[5mC]*e[5mC]*eA; antisense) [compound 19215]
Human CD40 mRNA
  % Inhibition (Inhibition of CD40 mRNA Levels by Chimeric Phosphorothioate Oligonucleotides): 45.97%

## 18651 (DNA dG*dG*dT*dT*dG*dG*dG*dG*dT*dC*dG*dC*dA*dG*dT*dA*dT*dT; antisense) [compound 18651]
Human CD40 mRNA
  % INHIB. (Inhibition of CD40 mRNA Levels by Phosphorothioate Oligodeoxynucleotides): 0.00%

## 18668 (DNA dG*dC*dT*dC*dG*dC*dA*dG*dA*dT*dG*dG*dT*dA*dT*dC*dA*dG; antisense) [compound 18668]
Human CD40 mRNA
  % INHIB. (Inhibition of CD40 mRNA Levels by Phosphorothioate Oligodeoxynucleotides): 0.00%

## 19250 (antisense eT*eG*e[5mC]*eA*dG*dG*dA*dC*dA*dC*dA*dG*dC*dT*e[5mC]*eT*e[5mC]*eA) [compound 19250]
Human CD40 mRNA
  % Inhibition (Inhibition of CD40 mRNA Levels by Chimeric Phosphorothioate Oligonucleotides): 52.05%

## 19238 (antisense eT*eG*eG*eG*dG*dT*dC*dG*dC*dA*dG*dT*dA*dT*eT*eT*eG*eT) [compound 19238]
Human CD40 mRNA
  % Inhibition (Inhibition of CD40 mRNA Levels by Chimeric Phosphorothioate Oligonucleotides): 0.00%

## 19284 (eT*eG*eG*eA*dG*dC*dC*dA*dG*dG*dA*dA*dG*dA*eT*e[5mC]*eG*eT; antisense) [compound 19284]
Human CD40 mRNA
  % Inhibition (Inhibition of CD40 mRNA Levels by Chimeric Phosphorothioate Oligonucleotides): 54.48%

## 18670 (DNA dT*dG*dG*dG*dC*dA*dG*dG*dG*dC*dT*dC*dG*dC*dA*dG*dA*dT; antisense) [compound 18670]
Human CD40 mRNA
  % INHIB. (Inhibition of CD40 mRNA Levels by Phosphorothioate Oligodeoxynucleotides): 0.00%

From patent US20050142581A1, “Microrna as ligands and target molecules” (priority 2003, published 2005)
